Measured values: PMC8880129, “Plant- and Bacteria-Derived Compounds with Anti-Philasterides dicentrarchi Activity” (Pathogens, 2022)
Read-outs that look alike come from different tables or passages of the source.

Key:
[1] = test system: Philasterides dicentrarchi; assay: microbe, parasite or virus in culture; settings: for Ciliate Mortality 3 h (%) / parasites killed after 24 h / Growth Inhibition 24 h (%): 100 μM, culture medium; for Ciliate Mortality 3 h (%) / Growth Inhibition 24 h (%): mean ± SD of three replicates; for mortality at 100 µM / GI50 / inhibition at 100 µM: Philasterides dicentrarchi; for Ciliate Mortality 3 h (%) / mortality at 100 µM: 3 h
Protocol: P. dicentrarchi (isolate I1), obtained from an outbreak of scuticociliatosis in cultured turbot in Galicia, was routinely cultured at 18 °C in complete sterile L15 medium (Leibovitz, PAA Laboratories GmbH, 1% salinity, pH 7.2) containing 90 mg/L each of adenosine, cytidine, and uridine, 150 mg/L of guanosine, 5 g/L of glucose, 400 mg/L of L-α-phosphatidylcholine, 200 mg/L of Tween 80, 10% of heat-inactivated foetal bovine serum (FBS), and 10 mL/L of 100X antibiotic–antimycotic solution (100 units/mL of penicillin G, 0.1 mg/mL of streptomycin sulphate and 0.25 mg/mL of amphotericin B), as previously described. Alternatively, ciliates were cultured in seawater with autoclaved marine bacteria (10^6 cells/mL) supplied as food at 21 °C. The ciliates were cultured under normoxic conditions in tissue culture flasks fitted with vented caps that enabled aeration of the culture medium.
We tested the toxicity to P. dicentrarchi of 26 compounds of natural origin (Table 1). The compounds were prepared in 10 mM stock solutions in dimethyl sulfoxide (DMSO) and maintained at −20 °C until use. In addition, the Pseudomonas H6 lipopeptide surfactant (PS) was prepared, lyophilised and stored at −20 °C [37]. A stock solution of PS was prepared in distilled water (1000 ppm) and diluted in culture medium or seawater at the final concentrations used in each assay and sterile filtered (through 0.2 µm filters) before being added to the parasites or EPC cells.
The anticiliate activity was assayed as previously described, with minor modifications. Ciliates were concentrated by centrifugation at 650× g for 5 min and resuspended in a medium at the concentration required for the assays. All experiments were carried out in triplicate. Wells containing ciliates in a culture medium or seawater without the test compounds were assayed as negative controls. To rule out any possible effects of the solvent (DMSO), triplicate wells with a culture medium or seawater containing the highest concentration of DMSO used (up to 1%) were also included. […] In these assays, the compounds were diluted in 1 mL of culture medium or seawater and added to the wells of 24-well sterile culture plates containing 2.5 × 10^4 ciliates per well, at final concentrations of […], 6.25, 12.5, 25, 50, and 100 µM in culture medium. The effects of the compounds on the motility and morphology of the ciliates were monitored periodically (at 30 min, 1, 2, 3, 24, and 48 h) under an inverted optical microscope. Ciliates were considered dead when they lysed and were not motile. The results obtained are expressed as percentage mortality for each experimental group. To estimate the total number of ciliates per well, the ciliates were inactivated by adding 0.25% glutaraldehyde and counted in a haemocytometer under an optical microscope. The lowest dose of the selected compounds resulting in 100% ciliate mortality (LC100) was assessed at 1, 2, and 3 h after incubation of parasites with sample dilutions (from 0 to 100 μg/mL, in 10 μg intervals). The concentration that inhibited 50% of ciliate growth (GI50), in comparison with the control group, was calculated with Excel software (Microsoft Office; Microsoft, Redmond, WA, USA) by plotting the dose-response data (log dose-per cent of growth inhibition) and applying linear regression (y = mx + b) for data fitting. The values were then calculated from the equation log GI50 = (50 − b)/m, where m is the slope y1 − y2/x1 − x2, and b is the intercept of the line.

[2] = test system: Philasterides dicentrarchi; assay: Anticiliate activity, ciliates maintained in seawater (LC100, LC50); assay type: cell-based; settings: 3 h incubation
Protocol: All experiments were carried out in triplicate.

[3] = Toxicity to EPC cell line, MTT assay; assay type: cell-based, fish; settings: fish
Protocol: (§1) We used the Epithelioma Papulosum Cyprini (EPC) cell line, acquired from the American Type Culture Collection (ATCC®, Manassas, VA, USA), as a control for toxicity. The cell line, kindly provided by Doctors Pereira-Dopazo and Bandin from the Aquaculture Institute of the University of Santiago de Coompostela, was cultured in MEM medium equilibrated with Hanks’ balanced salts (Gibco, Thermo Fischer Sci., Waltham, MA, USA) supplemented with 10% foetal bovine serum and 10 mL/L of 100X antibiotic–antimycotic solution. Cells were maintained subconfluent at 25 °C in a cell culture incubator and used when the confluence reached 75%.
(§2) Cell viability was then estimated by the MTT (3-(4,5-dimethylthiazol-2-yl)-2,5-diphenyl tetrazolium bromide) assay, as previously described, with minor modifications. Briefly, 100 μL of the MTT solution (1 mg/mL in phosphate-buffered saline; pH 7.2) was added to each well, and plates were incubated at 25 °C for 4 h. The yellow tetrazolium salt of MTT is reduced by mitochondrial dehydrogenases in metabolically active cells to form insoluble purple formazan crystals, which are then dissolved by the addition of DMSO (50 μL/well). Prior to the addition of MTT or DMSO, the plates were washed, and the supernatant was removed. The absorbance was measured at 540 nm in a microplate reader (Multiskan™, Thermo Fischer Sci., Waltham, MA, USA), and the relative cell viability was expressed as the mean percentage of viable cells relative to untreated cells.
(§3) In the viability assay, the possible effect of DMSO was evaluated for each compound by the inclusion of three replicate wells with MEM medium and the same DMSO concentration as in the medium. […] Control cells with only MEM were also included in the assay.

EPC cells = assay: Toxicity to EPC cell line, MTT assay; assay type: cell-based, fish; settings: 24 h incubation, compound at its GI50 (24 h)
Protocol: as §1, §2, §3

P. dicentrarchi = test system: P. dicentrarchi; parameters: method as in PMID 15212284, PMID 21987103, PMID 27334368; settings: cited from earlier work
[4] = read-out: Ciliate Mortality 3 h (%), 100 μM, 3 h, culture medium, mean ± SD of three replicates
[5] = 24 h, read-out: GI50 24 h (compound concentration that inhibited 50% of parasite growth)
[6] = 24 h, read-out: Growth Inhibition 24 h (%), 100 μM, 24 h, culture medium, mean ± SD of three replicates
[7] = 48 h, read-out: GI50 48 h (compound concentration that inhibited 50% of parasite growth)

| Molecule | mortality at 100 µM [1, 4] [%] | inhibition at 100 µM [1, 6] [%] | Growth Inhibition 24 h (%) ([1]; 24 h) | also measured |
| --- | --- | --- | --- | --- |
| O=C(/C=C/c1ccccc1)c1ccc(O)cc1O [2′,4′-dihydroxychalcone] | > 90 | 100 | – | Ciliate Mortality 3 h (%) [1]: 99 ± 0.71%; parasites killed after 24 h ([1]; 24 h): killed all the parasites; GI50 [1, 5]: 7.54 ± 1.31 µM; GI50 [1, 7]: 5.68 ± 0.16 µM; LC100 (lowest concentration resulting in 100% ciliate mortality) [2]: 70 µM; viability at 3 h [3]: 92 ± 2.5%; viability at 24 h [3]: 89.7 ± 1.4%; EPC cells killed (EPC cells): about 10% |
| CCCCCCc1ccc(O)cc1O [4-hexylresorcinol] | > 90 | 100 | – | Ciliate Mortality 3 h (%) [1]: 95.3 ± 4.05%; parasites killed after 24 h ([1]; 24 h): killed all the parasites; GI50 [1, 5]: 63.3 ± 3.61 µM; GI50 [1, 7]: 40.8 ± 0.11 µM |
| O=c1cc(-c2ccccc2)oc2cc(O)ccc12 [7-hydroxyflavone] | 10 ± 1.52 | 67.4 ± 2.4 | – | – |
| O=C(O)c1ccccc1 [Benzoic acid] | – | – | – | mortality at 100 µM ([1]; read-out: Ciliate Mortality 3 h (%)): 1.64 ± 0.56%; inhibition at 100 µM ([1]; 24 h, read-out: Growth Inhibition 24 h (%)): 17.4 ± 1.2% |
| O=C(O)CCCC[C@@H]1SC[C@@H]2NC(=O)N[C@@H]21 [Biotin] | 0 | 37 ± 0.72 | – | – |
| CCCCOC(=O)c1ccc(O)cc1 [Butyl 4-hydroxybenzoate] | 52.9 ± 2.39 | > 80 | 80.65 ± 2.42 | GI50 [1, 5]: 43.9 ± 6.6 µM; GI50 [1, 7]: 29.2 ± 0.35 µM |
| CC12CCC(CC1=O)C2(C)C (centres unmarked) [Camphor (1r)] | – | – | 77.42 ± 2.7 | Ciliate Mortality 3 h (%) [1]: 0% |
| C[C@@H]1CC[C@H]2C(C)(C)[C@H]3C[C@@]12CC[C@@]3(C)O [Cedrol] | 64.2 ± 3.7 | 66.67 ± 0.33 | – | – |
| C[C@H]1[C@H]2CC[C@H]3[C@@H]4CC=C5C[C@@H](N(C)C)CC[C@]5(C)[C@H]4CC[C@]23CN1C [Conessine] | 50.2 ± 4.5 | > 80 | 84.42 ± 2.42 | GI50 [1, 5]: 12 ± 0.8 µM; GI50 [1, 7]: 11.2 ± 0.65 µM |
| O=c1ccc2ccccc2o1 [Coumarin] | 8 ± 5.9 | 23.5 ± 4.12 | – | – |
| C=CCSCC=C [Diallyl sulfide] | 22.3 ± 5.1 | 38.8 ± 7.32 | – | – |
| O=c1ccc2cc(O)c(O)cc2o1 [Esculetin] | 8.2 ± 5.32 | 15.3 ± 6.32 | – | – |
| CC12CCC(CC1)C(C)(C)O2 [Eucalyptol] | 17 ± 8.42 | 35.6 ± 4.21 | – | – |
| CC1=NCCc2c1[nH]c1cc(O)ccc21.Cl.O.O [Harmalol hydrochloride dihydrate] | – | – | 40.08 ± 4.9 | Ciliate Mortality 3 h (%) [1]: 4.8 ± 1.12% |
| C[C@H]1C(=O)O[C@@H]2CCN3CC=C(COC(=O)[C@](C)(O)[C@]1(C)O)[C@H]23 [Monocrolatine] | – | – | 9.8 ± 2.11 | Ciliate Mortality 3 h (%) [1]: 6.61 ± 1.06% |
| COc1cc2c(cc1OC)-c1cc3ccc(OC)c(OC)c3c[n+]1CC2 [Palmatine chloride] | 6.8 ± 0.59 | 28.5 ± 4.25 | – | – |
| OCCc1ccccc1 [Phenylethyl alcohol] | 2.3 ± 1.4 | 30.1 ± 4.63 | – | – |
| O=C(/C=C/C=C/c1ccc2c(c1)OCO2)N1CCCCC1 [Piperine] | 42.6 ± 9.1 | > 80 | 89.04 ± 3.37 | GI50 [1, 5]: 60.7 ± 6.31 µM; GI50 [1, 7]: 44 ± 1.83 µM |
| O=C(/C=C/c1ccc(O)c(O)c1)O[C@H](Cc1ccc(O)c(O)c1)C(=O)O [Rosmarinic acid] | 27.1 ± 7.27 | 35 ± 5.51 | – | – |
| CC1(C)CCC[C@]2(C)[C@H]3CC(=O)O[C@]3(C)CC[C@@H]12 [Sclareolide] | – | – | 71.67 ± 6.92 | – |
| CC(O)C(=O)[O-].[Na+] (centres unmarked) [Sodium lactate] | – | – | 28.33 ± 3.93 | Ciliate Mortality 3 h (%) [1]: 13.76 ± 4.1% |
| O=c1ccc2ccc(O)cc2o1 [Umbelliferone] | 2.9 ± 1.89 | 44.9 ± 7.23 | – | – |
| CC(=O)c1c(O)c(C)c(O)c2c1OC1=CC(=O)C(C(C)=O)C(=O)C12C (centres unmarked) [Usnic acid] | 38.3 ± 5.52 | 68.3 ± 3.34 | – | – |
| COc1cc(/C=C/C(=O)CC(=O)/C=C/c2ccc(O)c(OC)c2)ccc1O [curcumin] | – | – | – | efficacy against P. dicentrarchi (P. dicentrarchi): effective |
| O=C(O[C@@H]1Cc2c(O)cc(O)cc2O[C@@H]1c1cc(O)c(O)c(O)c1)c1cc(O)c(O)c(O)c1 [epigallocatechin gallate] | – | – | – | efficacy against P. dicentrarchi (P. dicentrarchi): effective |
| O=c1c2cc(O)c(O)cc2oc2cc(O)c([C@@H]3O[C@H](CO)[C@@H](O)[C@H](O)[C@H]3O)c(O)c12 [mangiferin] | – | – | – | efficacy against P. dicentrarchi (P. dicentrarchi): effective |
| Oc1ccc(/C=C/c2cc(O)cc(O)c2)cc1 [resveratrol] | – | – | – | efficacy against P. dicentrarchi (P. dicentrarchi): effective |
| Garlicin [Garlicin 80%] | – | – | 42.47 ± 5.62 | – |
